Data on three molecules can be found in patent US20070269529A1, “Method For Treating Plants And Plant Parts” (priority 2003, published 2007).

What all share (format): cell-based, Raphanus sativus L. cv. Cherry-Belle
Experiment [1] concerns radish cotyledons. As to the kind of experiment: Radish cotyledon expansion bioassay (fresh weight, chlorophyll). To be noted: compounds 20 mg/L, 72 h, 25° C.; for Change in fresh weight: continuous illumination. The protocol:
(§1) Seeds of Raphanus sativus L. cv. Cherry-Belle were germinated in darkness at 24° C. for 40 h in Petri dishes containing filter paper wetted with distilled water. The smaller of the two cotyledons was excised, the fresh weight determined, and 10 cotyledons placed adaxial side down on filter paper in Petri dishes containing 7.5 mL of phosphate buffered saline (PBS, 2 mM, pH 6.0) and the compounds to be tested at 20 mg/L. Cotyledons were then incubated under continuous illumination up to 72 h at 24° C. or 25° C. and the increase in fresh weight determined. Chlorophyll content was determined after extraction of tissue into 80% EtOH (containing butylated hydroxytoluene 10 mg/L) and quantified using the equations Chl a=(13.95A663)-(6.88A647) and Chl b=(24.96A652)-(7.32A663) as described by Lichtenthaler, H K (Methods in Enzymology 148:350-382, 1987). IAA oxidase, PAL, PPO and POD activity were determined as described by Kato, M et al. (Plant and Cell Physiology 41:440-447, 2000) and Li, X et al. (Plant Science 164:549-556, 2003).
In order to remove variability from the bioassay—due presumably to temporal changes in the concentration of root-derived cytokinins in cotyledons—the bioassay procedure was modified to routinely include 0.2 mg/L (approximately 1 μM) kinetin in the background.
Cotyledon expansion growth: The effect of soy EML in the presence of kinetin on expansion growth was investigated and the results are shown in Table 1.

Experiment [2] relates to POD (EC 1.11.1.7). As to the kind of experiment: POD activity in radish cotyledons. To be noted: onset of organ maturity, FIG. 4. The protocol:
as §1
To determine the effect of EML on induction of POD, activity of this enzyme was monitored during the 72 h incubation period after exposure to soy EML (20 mg/l) and the results are shown in FIG. 4. […] Highest POD activity was measured in control and ACC-treated cotyledons.

Experiment [3] concerns radish cotyledons. As to the kind of experiment: Protein content of radish cotyledons. The note with it: 20 mg/L, FIG. 1. The protocol: as §1
(§2) PAL (EC 4.3.1.5) activity: Ethylene is produced by plants in response to a variety of stresses, including wounding (Kato, M et al. Plant and Cell Physiology 41:440-447, 2000). Assuming the stress is of sufficient intensity and duration plants will also begin to show signs of senescence. […]

The test system of experiment [4] is PAL (EC 4.3.1.5). As to the kind of experiment: PAL activity in radish cotyledons. The note with it: 20 mg/L, FIG. 1. The protocol:
as §1, §2

The subject of experiment [5] is PPO (EC 1.14.18.1). As to the kind of experiment: PPO activity in radish cotyledons. To be noted: 20 mg/L, FIG. 6. The protocol: as §1
PPO (EC 1.14.18.1): Like PAL and POD, PPO is an important enzyme catalyzing lignin biosynthesis in plants.

Experiment [6] has as its system IAA oxidase. As to the kind of experiment: IAA oxidase activity in radish cotyledons. To be noted: 20 mg/L, FIG. 7. The protocol:
as §1
IAA Oxidase activity: IAA homeostasis is an important process contributing to correlative control of plant growth and development. Generally, IAA is synthesized in the apices and in shoots; apically derived IAA is basipetally transported. […]

Turning to `NC1(C(=O)O)CC1` [ACC, 1-amminocyclopropane-1-carboxylic acid], in experiment [1], the “% of control (change in fresh weight)” value is 25%, the “Chlorophyll a + b (mg/g FW)” value amounted to 5.40 mg/g FW, the “Chlorophyll a + b (μg/cotyledon)” value stood at 35.90 ± 6.13 μg/cotyledon and the Chlorophyll a/b was 0.83. For the same molecule, in experiment [1], the “Change in fresh weight” value was determined as 2.56 ± 0.39 mg. In experiment [2], the “POD activity at 48 and 72 h” value is “Highest”. For the same molecule, the protein content result in experiment [3] is “delayed and reached a maximum only 24 h after exposure to light”. Moreover, the PAL activity entry in experiment [4] is “progressively delayed”. The PPO activity result in experiment [5] is on record as “appeared to suppress PPO activity”.
Consider `c1coc(CNc2ncnc3[nH]cnc23)c1` [Kinetin, kinetin], for which, in experiment [1] (Raphanus sativus, read-out: % of control (change in fresh weight)), the activity at 20 µg/mL came to 153%. For the same molecule, in experiment [1], the “Chlorophyll a + b (mg/g FW)” value turned out to be 2.17 mg/g FW, the “Chlorophyll a + b (μg/cotyledon)” value stood at 54.10 ± 7.03 μg/cotyledon, the Chlorophyll a/b is recorded as 0.87 and the “Change in fresh weight” value was determined as 15.49 ± 1.81 mg. In experiment [2], the “POD activity at 48 and 72 h” value was “lowest”. The protein content result in experiment [3] was “rapid but transient increase”. The PAL activity result in experiment [4] was “progressively delayed”. Moreover, in experiment [5], the PPO activity entry is given as “appeared to increase gradually over time”.
In the case of lysophosphatidylethanolamine [LPE], in experiment [5], the PPO activity result was “did not induce PPO activity”. Moreover, the IAA oxidase activity entry in experiment [6] is reported as “no apparent effect”.
